Results: PubChem BioAssay (NCI)
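How tested: cells in 96-well plates exposed to compound for 48 hours at five concentrations. TGI marks complete inhibition of growth.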

Columns and labels:
Assay in all cases: NCI tumour cell line growth inhibition, 48 h
A498 renal = system: A498 renal
ACHN renal = system: ACHN renal
BT-549 breast = system: BT-549 breast
CAKI-1 renal = system: CAKI-1 renal
COLO 205 colon = system: COLO 205 colon
EKVX NSCLC = system: EKVX NSCLC
HCC-2998 colon = system: HCC-2998 colon
HL-60(TB) leukemia = system: HL-60(TB) leukemia
HOP-62 NSCLC = system: HOP-62 NSCLC
MDA-MB-231 breast = system: MDA-MB-231 breast
MDA-N = system: MDA-N
NCI-H460 lung = system: NCI-H460 lung
OVCAR-4 ovarian = system: OVCAR-4 ovarian
SK-MEL-5 melanoma = system: SK-MEL-5 melanoma
SNB-75 CNS = system: SNB-75 CNS
SR leukemia = system: SR leukemia
T-47D breast = system: T-47D breast
TK-10 renal = system: TK-10 renal
U251 CNS = system: U251 CNS
UO-31 renal = system: UO-31 renal

Row | SMILES | TGI (A498 renal) | TGI (ACHN renal) | TGI (BT-549 breast) | TGI (CAKI-1 renal) | TGI (COLO 205 colon) | TGI (EKVX NSCLC) | TGI (HCC-2998 colon) | TGI (HL-60(TB) leukemia) | TGI (HOP-62 NSCLC) | TGI (MDA-MB-231 breast) | TGI (MDA-N) | TGI (NCI-H460 lung) | TGI (OVCAR-4 ovarian) | TGI (SK-MEL-5 melanoma) | TGI (SNB-75 CNS) | TGI (SR leukemia) | TGI (T-47D breast) | TGI (TK-10 renal) | TGI (U251 CNS) | TGI (UO-31 renal)
1 | O=C(Cn1nc(Br)c(Br)c1Br)c1ccccc1 | 85.8 µM | 76.2 µM | 80.4 µM | 96.7 µM | 36.9 µM | > 100 µM | > 100 µM | 30.5 µM | > 100 µM | 84.5 µM | > 100 µM | 63.9 µM | > 100 µM | 34.5 µM | 63.8 µM | 25.9 µM | 89.1 µM | 53.1 µM | > 100 µM | 57 µM
2 | CC(C)CCC1(O)O[C@H]2C[C@H]3[C@@H]4CCC5CC(=O)C=C[C@]5(C)[C@H]4CC[C@]3(C)[C@H]2[C@@H]1C (stereo not given in full) | 28.5 µM | 26.6 µM | 27.3 µM | 28.1 µM | 27.8 µM | 34.7 µM | 5.86 µM | 17.7 µM | 28.4 µM | 28.2 µM | 27 µM | 22.2 µM | 24.3 µM | 26.7 µM | 28 µM | 22.6 µM | 25.6 µM | 24.2 µM | 23.7 µM | 30.3 µM
3 | CCCN1C(=O)CCC2=C1CCc1c2ccc(Cl)c1Cl | 33.2 µM | > 100 µM | > 100 µM | > 100 µM | > 100 µM | > 100 µM | 49.8 µM | 86.2 µM | > 100 µM | 48.7 µM | > 100 µM | > 100 µM | > 100 µM | 60.4 µM | 33.9 µM | > 100 µM | > 100 µM | 49.5 µM | > 100 µM | > 100 µM
4 | CN1CCC2(CC1)C(=O)N(N1CCCCCC1)C(=O)N2c1ccccc1 | > 100 µM | > 100 µM | > 100 µM | > 100 µM | > 100 µM | > 100 µM | > 100 µM | > 100 µM | > 100 µM | > 100 µM | > 100 µM | > 100 µM | > 100 µM | > 100 µM | > 100 µM | > 100 µM | > 100 µM | > 100 µM | > 100 µM | > 100 µM
5 | OCCN(CCO)c1ccc2c(C(F)(F)F)cc(C(F)(F)F)nc2n1 | > 100 µM | > 100 µM | > 100 µM | > 100 µM | > 100 µM | > 100 µM | > 100 µM | > 100 µM | > 100 µM | > 100 µM | > 100 µM | > 100 µM | > 100 µM | > 100 µM | > 100 µM | > 100 µM | > 100 µM | > 100 µM | > 100 µM | > 100 µM
6 | NC1C/C(=N\O)c2c(I)sc(I)c21 (stereo not given) | > 58 µM | 33.5 µM | 29.9 µM | 28.6 µM | 40.6 µM | 40.4 µM | 38.5 µM | > 100 µM | 34.4 µM | 39.3 µM | > 54 µM | 52 µM | > 64.9 µM | 28.4 µM | 33.4 µM | > 100 µM | 52.3 µM | 31.3 µM | 37.4 µM | 30.1 µM
7 | CC1(c2ccc(Cl)cc2)CC(c2ccc(Cl)cc2)=C(C#N)C(=C(C#N)C#N)N1 (stereo not given) | 40 µM | 28 µM | 42.2 µM | 32.5 µM | 28.7 µM | 35.6 µM | 29.5 µM | 78.6 µM | 25.1 µM | 55.8 µM | 38.5 µM | 73.3 µM | 35.7 µM | 27.2 µM | 34.7 µM | > 100 µM | 40 µM | 32.6 µM | 29.5 µM | 30.7 µM
8 | C1COC(NC(C2CC2)C2CC2)=N1 | > 100 µM | > 100 µM | > 100 µM | > 100 µM | > 100 µM | > 100 µM | > 100 µM | > 100 µM |  | > 100 µM | > 100 µM | > 100 µM | > 100 µM | > 100 µM | > 100 µM | > 100 µM | > 100 µM | > 100 µM | > 100 µM | > 100 µM
9 | CC(=O)Oc1ccc2c(c1)c1c(=O)oc(N(C)C)nc1n2Cc1ccccc1 | > 83 µM | > 100 µM | > 100 µM | > 73.3 µM | > 100 µM | > 100 µM | > 100 µM | > 100 µM | > 100 µM | > 100 µM | > 100 µM | > 100 µM | > 100 µM | > 100 µM | > 100 µM | > 100 µM | > 92.9 µM | > 100 µM | > 100 µM | > 81.8 µM
10 | O=C(Oc1ccccc1)c1cc2cc(CCl)ccc2oc1=O | 33.9 µM | 21.1 µM | > 100 µM | 29.8 µM | 52.9 µM | 38.5 µM | 47.1 µM | > 100 µM | > 100 µM | 82 µM | > 100 µM | 51.6 µM | 68.9 µM | 27.5 µM | 57.3 µM | > 100 µM | 38.7 µM | 43.8 µM | > 100 µM | 68.1 µM
11 | CC(C)C(C/C=C1/CC(CO)(COC(=O)CC(C(C)C)C(C)C)OC1=O)C(C)C (stereo not given) | 11 µM | 18.2 µM | 28.7 µM | 16.5 µM | 3.33 µM | 19.4 µM | 13.3 µM | 11.7 µM | 18.3 µM | 18.5 µM | 29.6 µM | 20 µM | 31.8 µM | 22.3 µM | 18.8 µM | > 50.3 µM | 22.9 µM | 16.1 µM | 25.3 µM | 19.9 µM
12 | COc1ccc(C2SCC(=O)N2c2ccc(-c3ccc(-n4c(-c5ccccc5)nc5ccccc5c4=O)cc3)cc2)cc1 (stereo not given) | > 100 µM | > 100 µM | > 100 µM | > 100 µM | > 100 µM | > 100 µM | > 100 µM | > 100 µM | > 100 µM | > 100 µM | > 100 µM | > 100 µM | > 100 µM | > 100 µM |  | > 100 µM | > 100 µM | > 100 µM | > 100 µM | > 100 µM
13 | CC(=O)O[C@H]1C[C@]2(C)C(CCC3O[C@@]32C)[C@@]2(CC(c3ccoc3)OC2O)[C@@H]1C (stereo not given in full) | > 100 µM | > 100 µM | > 100 µM | > 100 µM | > 100 µM | > 100 µM | > 100 µM | 52 µM |  | > 100 µM | > 100 µM | > 100 µM | > 100 µM | > 100 µM | > 100 µM | > 100 µM | > 100 µM | > 100 µM | > 100 µM | > 100 µM
14 | O=C1C2C=CC1C1C(=O)OC(=O)C21 (stereo not given) | > 100 µM | > 100 µM | > 100 µM | > 100 µM | > 100 µM | > 100 µM | > 100 µM | > 100 µM | > 100 µM | > 100 µM | > 100 µM | > 100 µM | > 100 µM | > 100 µM | > 100 µM | > 100 µM | > 100 µM | > 100 µM | > 100 µM | > 100 µM
15 | N#Cc1[nH]c(=O)n(-c2ccc(Cl)cc2)c1N | > 10 µM | > 10 µM | > 10 µM | > 10 µM | > 10 µM | > 10 µM | > 10 µM | > 10 µM | > 10 µM | > 10 µM | > 10 µM | > 10 µM | > 10 µM | > 10 µM |  | > 10 µM | > 10 µM | > 10 µM | > 10 µM | 
16 | Cc1cc(N(CCC#N)CCC#N)ccc1/C(N=Nc1cccc([N+](=O)[O-])c1)=N/NC(=O)c1cc(Cl)ccc1O | 49.2 µM | > 100 µM | 92.7 µM | 56.7 µM | 38.8 µM | 93.6 µM | 93.4 µM | 37.8 µM | > 100 µM | 53.5 µM | > 100 µM | 88.6 µM | 92.2 µM | 39.3 µM | 82.6 µM | 45 µM | 71 µM | > 100 µM | > 100 µM | 70.8 µM
17 | COc1ccc2c3c1OC1C(=O)C=CC4(O)C(C2)NCC[C@@]314 (stereo not given in full) | 9.39 µM | 12.6 µM | 6.32 µM | 8.49 µM | 3.02 µM | 7.95 µM | 6.1 µM | 4.4 µM | 9.87 µM | 9.01 µM | 4.91 µM | 13.2 µM | 12.9 µM | 16.4 µM | 4.32 µM | 35.8 µM | 5.69 µM | 4.99 µM | 7.15 µM | 8.53 µM
18 | COC(=O)NCCc1[nH]nc2c1C(=O)C=C(Nc1ccccc1)C2=O | > 100 µM | > 100 µM | > 100 µM | > 100 µM | 37.5 µM | > 100 µM | > 100 µM | 46.3 µM | > 100 µM | 87.7 µM | 33.2 µM | > 100 µM | 72 µM | 32.2 µM | > 100 µM | 65.2 µM | > 100 µM | > 100 µM | 42.2 µM | > 100 µM
19 | COC(=O)C(CCC1C=CCC1)N=Cc1ccccc1 (stereo not given) | > 100 µM | > 100 µM | > 100 µM | > 100 µM | > 100 µM | > 100 µM | > 100 µM | > 100 µM | > 100 µM | > 100 µM | > 100 µM | > 100 µM | > 100 µM | > 100 µM | > 100 µM | > 100 µM | > 100 µM | > 100 µM | > 100 µM | > 100 µM
